Patent US7405205B2, “Antitumor antisense sequences directed against R1 and R2 components of ribonucleotide reductase” (Lorus Therapeutics Inc., priority 1996, dated 2008)

Legend:
[1] = tested on: RP3/ASR2 cells (RP3 with R2 antisense vector); test: Drug sensitivity by relative colony forming efficiency; assay type: cell-based, mouse
[2] = tested on: N/R2-4 cells (NIH-3T3, R2 expression vector); test: as above; assay type: cell-based, mouse
[3] = tested on: RP6/ASR2 cells (RP6 with R2 antisense vector); test: as above; assay type: cell-based, mouse
[4] = tested on: B3/SH cells (BALB/c 3T3, empty vector); test: as above; assay type: cell-based, mouse
[5] = tested on: H4 (H-4) hydroxyurea resistant mouse L cells; test: as above; assay type: cell-based
[6] = tested on: N/SH cells (NIH-3T3, empty vector); test: as above; assay type: cell-based, mouse
[7] = tested on: RP3/SH cells (10T½, H-ras and mutant p53); test: as above; assay type: cell-based, mouse
[8] = tested on: RP6/SH cells (10T½, H-ras and mutant p53); test: as above; assay type: cell-based, mouse
[9] = tested on: B3/mR2 cells (BALB/c 3T3, R2 expression vector); test: as above; assay type: cell-based, mouse
[10] = tested on: N/R2+ASR2 cells (NIH-3T3, R2 and R2 antisense vectors); test: as above; assay type: cell-based, mouse
[11] = tested on: wild type (W.T.) mouse L cells; test: as above; assay type: cell-based
[12] = tested on: SC2 hydroxyurea resistant mouse L cells; test: as above; assay type: cell-based
[13] = tested on: H2 (H-2) hydroxyurea resistant mouse L cells; test: as above; assay type: cell-based
[14] = tested on: B3/R2c2 cells (clone of B3/mR2); test: as above; assay type: cell-based, mouse
HeLa 1 mM cells = test: Sensitisation to PALA and MTX by antisense, relative colony forming efficiency; assay type: cell-based, human; conditions: without AS-II-2229B-20
Procedure: (§1) Drug Selections: Cells ranging in numbers from 500 to 1-2×10^5 were added to 100 mm tissue culture plates in growth medium containing 10% dialyzed fetal bovine serum, and in the absence or presence of drug [Huang et al., 1995a; Choy et al., 1988]. The culture medium was replaced with fresh medium every week for two to three weeks. Surviving cells were visualized by methylene blue staining, and colonies of about 50 cells or more were scored [Huang et al., 1995a]. The relative colony forming efficiency was defined as the ability to produce colonies in the presence of a drug divided by that ability in the absence of drug.
(§2) Colony forming efficiency was determined as previously reported [Huang and Wright, 1994]. The cells were cultured for 24 hours at 37° C. in growth medium with 10% fetal bovine serum. The cells were washed in 5 ml phosphate buffered saline, pH 7.2, once prior to lipofectin+/−oligonucleotide treatment.
(§3) The oligonucleotides being tested were added to cell cultures in the presence of 2.5 μg of DOTMA/DOPE (Lipofectin; Life Technologies, Inc.) for four hours. The oligonucleotide was tested at 0.2 μM unless otherwise indicated. Controls were the cultures treated with lipofectin but without the oligonucleotide. After 4 hours the medium containing the oligonucleotide was removed and washed with 5 ml of growth medium. The cells were then cultured in growth medium containing 10% fetal bovine serum for seven to ten days. Surviving cells were visualized by methylene blue staining, and colonies were scored. In some experiments cell aliquotes were removed from the culture and viability was determined using the trypan blue exclusion test [Phillips, 1973]. Results were analyzed as percent of surviving cells compared to control cells.
(§4) Based on Example 2, treatment of human tumor cells with very low concentrations of short antisense sequences was tested to determine if these constructs could sensitize the tumor cells to inhibitory effects of other chemotherapeutic drugs. […] These observations indicate that antisense compounds targeting the R2 message can act synergistically with well known chemotherapeutic agents.

HeLa S3 cells = test: as above; assay type: cell-based, human; conditions: PALA 20 μM, without AS-II-2229B-20
Procedure: as §1, §2, §3, §4

[15] = tested on: LHF hydroxyurea resistant mouse L cells; test: Drug sensitivity by relative colony forming efficiency; assay type: cell-based

O=C(O)C[C@H](NC(=O)CP(=O)(O)O)C(=O)O [PALA, N-(phosphonacetyl)-L-aspartate]
Relative Colony Forming Efficiencies ([1]; PALA 10 μM): 1183 ± 384 × 10^4
Relative Colony Forming Efficiencies ([1]; PALA 20 μM): 86.1 ± 32.9 × 10^4
Relative Colony Forming Efficiencies ([1]; PALA 30 μM): 19.5 ± 4.7 × 10^4
Relative Colony Forming Efficiencies ([1]; PALA 40 μM): 4.7 ± 0.6 × 10^4
Relative Colony Forming Efficiencies ([1]; PALA 50 μM): 2.1 ± 0.8 × 10^4
Relative Colony Forming Efficiencies ([1]; PALA 60 μM): 0.3 ± 0.2 × 10^4
Relative Colony Forming Efficiencies ([2]; PALA 10 μM): 6.22 ± 3.3 × 10^4
Relative Colony Forming Efficiencies ([2]; PALA 15 μM): 10.0 ± 5.5 × 10^4
Relative Colony Forming Efficiencies ([2]; PALA 20 μM): 1.71 ± 1.2 × 10^4
Relative Colony Forming Efficiencies ([2]; PALA 25 μM): 0.8 ± 0.7 × 10^4
Relative Colony Forming Efficiencies ([2]; PALA 30 μM): 1.03 ± 0.07 × 10^4
Relative Colony Forming Efficiencies ([2]; PALA 40 μM): 0.14 ± 0.08 × 10^4
Relative Colony Forming Efficiencies ([3]; PALA 10 μM): 2083 ± 960 × 10^4
Relative Colony Forming Efficiencies ([3]; PALA 20 μM): 368 ± 154 × 10^4
Relative Colony Forming Efficiencies ([3]; PALA 30 μM): 316 ± 171 × 10^4
Relative Colony Forming Efficiencies ([3]; PALA 40 μM): 116 ± 54 × 10^4
Relative Colony Forming Efficiencies ([3]; PALA 50 μM): 41.7 ± 23 × 10^4
Relative Colony Forming Efficiencies ([3]; PALA 60 μM): 13.2 ± 6.3 × 10^4
Relative Colony Forming Efficiencies ([4]; PALA 10 μM): 17.9 ± 11.0 × 10^4
Relative Colony Forming Efficiencies ([4]; PALA 20 μM): 0.39 ± 0.18 × 10^4
Relative Colony Forming Efficiencies ([4]; PALA 40 μM): 0.35 ± 0.01 × 10^4
Relative Colony Forming Efficiencies ([4]; PALA 50 μM): 0.24 ± 0.14 × 10^4
Relative Colony Forming Efficiencies ([4]; PALA 60 μM): 0.12 ± 0.05 × 10^4
Relative Colony Forming Efficiencies ([4]; PALA 80 μM): 0.17 ± 0.08 × 10^4
Relative Colony Forming Efficiencies ([5]; PALA 20 μM): 322.5 ± 36.4 × 10^4
Relative Colony Forming Efficiencies ([5]; PALA 30 μM): 84.0 ± 30.0 × 10^4
Relative Colony Forming Efficiencies ([5]; PALA 40 μM): 43.3 ± 9.6 × 10^4
Relative Colony Forming Efficiencies ([5]; PALA 50 μM): 23.2 ± 0.5 × 10^4
Relative Colony Forming Efficiencies ([5]; PALA 60 μM): 11.1 ± 1.4 × 10^4
Relative Colony Forming Efficiencies ([6]; PALA 10 μM): 5.28 ± 1.5 × 10^4
Relative Colony Forming Efficiencies ([6]; PALA 15 μM): 5.83 ± 2.7 × 10^4
Relative Colony Forming Efficiencies ([6]; PALA 20 μM): 0.30 ± 0.1 × 10^4
Relative Colony Forming Efficiencies ([6]; PALA 25 μM): 0.53 ± 0.3 × 10^4
Relative Colony Forming Efficiencies ([6]; PALA 30 μM): 0.48 ± 0.08 × 10^4
Relative Colony Forming Efficiencies ([6]; PALA 40 μM): 0.27 ± 0.2 × 10^4
Relative Colony Forming Efficiencies ([7]; PALA 10 μM): 2569 ± 338 × 10^4
Relative Colony Forming Efficiencies ([7]; PALA 20 μM): 123.4 ± 19.3 × 10^4
Relative Colony Forming Efficiencies ([7]; PALA 30 μM): 45.2 ± 7.8 × 10^4
Relative Colony Forming Efficiencies ([7]; PALA 40 μM): 15.0 ± 4.9 × 10^4
Relative Colony Forming Efficiencies ([7]; PALA 50 μM): 9.3 ± 3.6 × 10^4
Relative Colony Forming Efficiencies ([7]; PALA 60 μM): 3.9 ± 1.6 × 10^4
Relative Colony Forming Efficiencies ([8]; PALA 10 μM): 4619 ± 648 × 10^4
Relative Colony Forming Efficiencies ([8]; PALA 20 μM): 1220 ± 255 × 10^4
Relative Colony Forming Efficiencies ([8]; PALA 30 μM): 450 ± 129 × 10^4
Relative Colony Forming Efficiencies ([8]; PALA 40 μM): 271 ± 68 × 10^4
Relative Colony Forming Efficiencies ([8]; PALA 50 μM): 109 ± 23 × 10^4
Relative Colony Forming Efficiencies ([8]; PALA 60 μM): 55.5 ± 13 × 10^4
Relative Colony Forming Efficiencies ([9]; PALA 10 μM): 965.0 ± 529.7 × 10^4
Relative Colony Forming Efficiencies ([9]; PALA 20 μM): 120.1 ± 28.4 × 10^4
Relative Colony Forming Efficiencies ([9]; PALA 40 μM): 25.0 ± 4.6 × 10^4
Relative Colony Forming Efficiencies ([9]; PALA 50 μM): 27.6 ± 8.9 × 10^4
Relative Colony Forming Efficiencies ([9]; PALA 60 μM): 25.0 ± 6.4 × 10^4
Relative Colony Forming Efficiencies ([9]; PALA 80 μM): 27.1 ± 6.75 × 10^4
Relative Colony Forming Efficiencies ([10]; PALA 10 μM): 1.81 ± 0.8 × 10^4
Relative Colony Forming Efficiencies ([10]; PALA 15 μM): 0.58 ± 0.3 × 10^4
Relative Colony Forming Efficiencies ([10]; PALA 20 μM): 0.04 ± 0.04 × 10^4
Relative Colony Forming Efficiencies ([10]; PALA 25 μM): 0.04 ± 0.04 × 10^4
Relative Colony Forming Efficiencies ([10]; PALA 30 μM): 0.12 ± 0.12 × 10^4
Relative Colony Forming Efficiencies ([10]; PALA 40 μM): 0.04 ± 0.04 × 10^4
Relative Colony Forming Efficiencies ([11]; PALA 20 μM): 172.3 ± 126.3 × 10^4
Relative Colony Forming Efficiencies ([11]; PALA 30 μM): 50.3 ± 20.5 × 10^4
Relative Colony Forming Efficiencies ([11]; PALA 40 μM): 15.0 ± 7.0 × 10^4
Relative Colony Forming Efficiencies ([11]; PALA 50 μM): 3.6 ± 1.1 × 10^4
Relative Colony Forming Efficiencies ([11]; PALA 60 μM): 1.3 ± 0.4 × 10^4
Relative Colony Forming Efficiencies ([12]; PALA 20 μM): 850.1 ± 325.2 × 10^4
Relative Colony Forming Efficiencies ([12]; PALA 30 μM): 187.6 ± 46.4 × 10^4
Relative Colony Forming Efficiencies ([12]; PALA 40 μM): 37.5 ± 8.7 × 10^4
Relative Colony Forming Efficiencies ([12]; PALA 50 μM): 47.5 ± 35.8 × 10^4
Relative Colony Forming Efficiencies ([12]; PALA 60 μM): 17.6 ± 1.2 × 10^4
Relative Colony Forming Efficiencies ([13]; PALA 20 μM): 406.7 ± 202.2 × 10^4
Relative Colony Forming Efficiencies ([13]; PALA 30 μM): 39.4 ± 16.4 × 10^4
Relative Colony Forming Efficiencies ([13]; PALA 40 μM): 23.3 ± 10.4 × 10^4
Relative Colony Forming Efficiencies ([13]; PALA 50 μM): 7.9 ± 1.7 × 10^4
Relative Colony Forming Efficiencies ([13]; PALA 60 μM): 3.6 ± 0.6 × 10^4
Relative Colony Forming Efficiencies ([14]; PALA 10 μM): 1230.0 ± 97.0 × 10^4
Relative Colony Forming Efficiencies ([14]; PALA 20 μM): 55.1 ± 15.6 × 10^4
Relative Colony Forming Efficiencies ([14]; PALA 40 μM): 20.2 ± 6.8 × 10^4
Relative Colony Forming Efficiencies ([14]; PALA 50 μM): 15.9 ± 4.0 × 10^4
Relative Colony Forming Efficiencies ([14]; PALA 60 μM): 18.7 ± 5.3 × 10^4
Relative Colony Forming Efficiencies ([14]; PALA 80 μM): 20.0 ± 4.9 × 10^4
Relative colony Forming Efficiency (HeLa 1 mM cells; PALA 20 μM): 377 ± 21
Relative colony Forming Efficiency (HeLa 1 mM cells; PALA 30 μM): 311 ± 9.5
Relative colony Forming Efficiency (HeLa S3 cells): 350 ± 50
Relative Colony Forming Efficiencies ([15]; PALA 20 μM): 233.3 ± 3.6 × 10^4
Relative Colony Forming Efficiencies ([15]; PALA 30 μM): 78.8 ± 7.9 × 10^4
Relative Colony Forming Efficiencies ([15]; PALA 40 μM): 46.5 ± 9.9 × 10^4
Relative Colony Forming Efficiencies ([15]; PALA 50 μM): 25.0 ± 6.8 × 10^4
Relative Colony Forming Efficiencies ([15]; PALA 60 μM): 10.7 ± 3.0 × 10^4
